Assay results from PMC12624432, “Development of Novel ^18F‑Labeled Selective Orexin‑2 Receptor Radioligands for Positron Emission Tomography” (ACS Pharmacology & Translational Science, 2025).
“Also recorded” adds a separate entry of the source.

What was measured:
NR2B receptors = NR2B receptors (Homo sapiens, UniProt Q05586+Q13224); test: Off-target binding, NR2B; conditions: read-out: K i NR2B
Description: (§1) Target selectivity over OX1R exceeded 600-fold for both compounds, satisfying a key prerequisite for selective OX2R imaging. […] CNS penetration was further predicted using Percepta, yielding log BB values of −0.14 and −0.36 for compounds 1 and 2, respectively, well above the empirical threshold for BBB permeability (log BB > −1). Additionally, off-target binding screening was conducted for compounds 1 and 2 toward 59 major CNS targets (Figures S1 and S2).
(§2) 1. Supporting Figures and Tables
(§3) Figure S1. Off-target pharmacological evaluation of compound 1. Initial screening of 59 major CNS targets at a concentration of 1 at 10 μM, including common GPCRs, enzymes, ion channels, and transporters. All data are mean ± SD (n ≥ 3).
(§4) Figure S2. Off-target pharmacological evaluation of compound 2. Initial screening of 59 major CNS targets at a concentration of 2 at 10 μM, including common GPCRs, enzymes, […]

Experimental log D = type: physicochemical
Description: 1 Representative Pharmacological and Physicochemical Properties of 1 and 2 | column: compound 1; compound 2

OX2R [1] = biological target: OX2R; set-up: method as in earlier work; conditions: no binding method in paper; compounds previously reported; read-out: K i/OX2; cited from earlier work
[2] = tested on: 59 major CNS targets (GPCRs, enzymes, ion channels, transporters); test: Off-target binding screening of 59 major CNS targets; conditions: 10 μM; significant = > 50%; except sigma 2 (and NR2B for 1)
Description: as §1, §2, §3, §4

sigma-2 = sigma-2 (Homo sapiens, UniProt Q5BJF2); test: Off-target binding, sigma-2; conditions: read-out: K i sigma-2
Chain of sigma-2 (Q5BJF2 whole entry): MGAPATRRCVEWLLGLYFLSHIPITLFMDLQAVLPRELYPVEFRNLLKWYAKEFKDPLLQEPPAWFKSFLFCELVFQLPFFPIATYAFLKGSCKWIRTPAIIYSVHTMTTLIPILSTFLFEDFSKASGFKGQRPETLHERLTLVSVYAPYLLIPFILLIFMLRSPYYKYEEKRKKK
Description: as §1, §2, §3, §4

OX1R = biological target: OX1R; set-up: method as in earlier work; conditions: no binding method in paper; compounds previously reported; read-out: K i/OX1; cited from earlier work
OX2R [3] = test: OX2R binding affinity; conditions: for selectivity over OX1R: OX2R over OX1R; for selectivity (OX2R/OX1R): ratio of Ki OX1 to Ki OX2
OX2R [4] = tested on: OX2R; set-up: method as in not given; conditions: introduction, literature statement; ref not given; cited from earlier work
OX2R [5] = biological target: T1, OX2R (Rattus norvegicus, UniProt P56719); test: Dynamic PET imaging in the rat brain; type: in vivo, Sprague–Dawley rats; set-up: from tissue; host or cells: brain of living Sprague-Dawley rats; conditions: for tracer uptake reduction under blocking: EMPA or LSN2424100 1 mg/kg after elacridar pretreatment, all brain regions; for peak SUV in brain: baseline, 0.5 min postinjection; for increase in SUV0–60 min with elacridar: co-administration of elacridar 5 mg/kg (P-gp/BCRP inhibitor), across brain regions
T1 sequence (P56719 1-460): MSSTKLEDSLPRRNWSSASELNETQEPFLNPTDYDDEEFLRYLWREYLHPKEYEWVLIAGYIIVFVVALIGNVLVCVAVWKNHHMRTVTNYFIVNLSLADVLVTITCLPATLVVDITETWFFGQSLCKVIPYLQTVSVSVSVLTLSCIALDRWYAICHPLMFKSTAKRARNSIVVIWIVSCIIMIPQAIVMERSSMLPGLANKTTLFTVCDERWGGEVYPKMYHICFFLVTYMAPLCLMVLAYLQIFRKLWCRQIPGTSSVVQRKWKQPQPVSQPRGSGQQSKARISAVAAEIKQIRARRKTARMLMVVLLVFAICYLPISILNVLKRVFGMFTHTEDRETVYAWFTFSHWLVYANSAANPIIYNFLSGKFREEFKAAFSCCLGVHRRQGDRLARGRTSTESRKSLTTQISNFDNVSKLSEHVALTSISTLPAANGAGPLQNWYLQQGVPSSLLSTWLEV
Description: PET imaging was performed according to previous reports , with minor modifications. [^18F]1 or [^18F]2 (40 μCi) was administered via the tail vein of SD rats, and dynamic scans were performed with a G8 PET scanner (Sofie) for 60 min. In the blocking study, elacridar (5 mg/kg) and OX2R antagonist (EMPA or LSN2424100, 1 mg/kg) were injected at 20 and 10 min before the administration of the tracer, respectively.

[6] = In vitro tracer stability in liver microsomes; type: in vitro ADME; conditions: mouse, rat and human liver microsomes
Description: (§5) [^18F]1 and [^18F]2 were obtained in 24% and 53% decay-corrected radiochemical yields (RCYs) with molar activities of 53 GBq/μmol and 38 GBq/μmol, respectively. […] Furthermore, in vitro stability tests of [^18F]1 and [^18F]2 were conducted in saline, serums, and liver microsomes across species.
Figure S3. Stability of [ 18F]1 in liver microsomes. (A) Stability of [ 18F]1 in mouse liver microsome; (B) Stability of [18F]1 in rat liver microsome; (C) Stability of [ 18F]1 in human […]
Figure S4. Stability of [ 18F]2 in liver microsomes. (A) Stability of [ 18F]2 in mouse liver microsome; (B) Stability of [18F]2 in rat liver microsome; (C) Stability of [ 18F]2 in human […]
Figure S5. TACs of [ 18F]1 in the whole rat brain under baseline and blocking (elacridar, elacridar and EMPA, or elacridar and LSN2424100; elacridar in 5 mg/kg, EMPA and LSN2424100 in 1 mg/kg) conditions; All data are mean ± SD, n ≥ 3. […]

OX2R [7] = biological target: T1, OX2R; test: In vitro autoradiography on rat brain sections; type: binding; set-up: from tissue; host or cells: rat brain sections; conditions: blocking with EMPA, LSN2424100 or authentic reference compound, 10 μM, across regions
Description: According to a previous report, rat brain sections were incubated with Tris-HCl buffer (50 mM) and then with [^18F]1 or [^18F]2. In the blocking study, brain sections were incubated with the tracer in the presence of 1, 2, EMPA, or LSN2424100 (10 μM). Then the brain sections were washed with the cold buffer, dried, exposed to an imaging screen, and scanned with a Typhoon biomolecular imager.

[8] = Radiometabolic analysis in plasma and brain; type: in vivo, SD rats; conditions: rat brain homogenate, 30 min postinjection
Description: According to a previous report, SD rats were euthanized 30 min after the administration of [^18F]1 or [^18F]2. The brain was collected, homogenized with cold MeCN and PBS, and centrifuged (14,000g, 5 min) at 4 °C. The supernatant was analyzed by HPLC, and both tracers and radiometabolites were collected and measured by a γ counter. The same procedure was conducted for plasma.

[9] = In vitro tracer stability in serum; type: in vitro ADME; conditions: mouse, rat, nonhuman primate and human serum
Description: as §5

[10] = In vitro tracer stability in saline; type: physicochemical; conditions: over the studied time intervals
Description: as §5

Chain of NR2B receptors (Q13224 27-1484, other chains not shown): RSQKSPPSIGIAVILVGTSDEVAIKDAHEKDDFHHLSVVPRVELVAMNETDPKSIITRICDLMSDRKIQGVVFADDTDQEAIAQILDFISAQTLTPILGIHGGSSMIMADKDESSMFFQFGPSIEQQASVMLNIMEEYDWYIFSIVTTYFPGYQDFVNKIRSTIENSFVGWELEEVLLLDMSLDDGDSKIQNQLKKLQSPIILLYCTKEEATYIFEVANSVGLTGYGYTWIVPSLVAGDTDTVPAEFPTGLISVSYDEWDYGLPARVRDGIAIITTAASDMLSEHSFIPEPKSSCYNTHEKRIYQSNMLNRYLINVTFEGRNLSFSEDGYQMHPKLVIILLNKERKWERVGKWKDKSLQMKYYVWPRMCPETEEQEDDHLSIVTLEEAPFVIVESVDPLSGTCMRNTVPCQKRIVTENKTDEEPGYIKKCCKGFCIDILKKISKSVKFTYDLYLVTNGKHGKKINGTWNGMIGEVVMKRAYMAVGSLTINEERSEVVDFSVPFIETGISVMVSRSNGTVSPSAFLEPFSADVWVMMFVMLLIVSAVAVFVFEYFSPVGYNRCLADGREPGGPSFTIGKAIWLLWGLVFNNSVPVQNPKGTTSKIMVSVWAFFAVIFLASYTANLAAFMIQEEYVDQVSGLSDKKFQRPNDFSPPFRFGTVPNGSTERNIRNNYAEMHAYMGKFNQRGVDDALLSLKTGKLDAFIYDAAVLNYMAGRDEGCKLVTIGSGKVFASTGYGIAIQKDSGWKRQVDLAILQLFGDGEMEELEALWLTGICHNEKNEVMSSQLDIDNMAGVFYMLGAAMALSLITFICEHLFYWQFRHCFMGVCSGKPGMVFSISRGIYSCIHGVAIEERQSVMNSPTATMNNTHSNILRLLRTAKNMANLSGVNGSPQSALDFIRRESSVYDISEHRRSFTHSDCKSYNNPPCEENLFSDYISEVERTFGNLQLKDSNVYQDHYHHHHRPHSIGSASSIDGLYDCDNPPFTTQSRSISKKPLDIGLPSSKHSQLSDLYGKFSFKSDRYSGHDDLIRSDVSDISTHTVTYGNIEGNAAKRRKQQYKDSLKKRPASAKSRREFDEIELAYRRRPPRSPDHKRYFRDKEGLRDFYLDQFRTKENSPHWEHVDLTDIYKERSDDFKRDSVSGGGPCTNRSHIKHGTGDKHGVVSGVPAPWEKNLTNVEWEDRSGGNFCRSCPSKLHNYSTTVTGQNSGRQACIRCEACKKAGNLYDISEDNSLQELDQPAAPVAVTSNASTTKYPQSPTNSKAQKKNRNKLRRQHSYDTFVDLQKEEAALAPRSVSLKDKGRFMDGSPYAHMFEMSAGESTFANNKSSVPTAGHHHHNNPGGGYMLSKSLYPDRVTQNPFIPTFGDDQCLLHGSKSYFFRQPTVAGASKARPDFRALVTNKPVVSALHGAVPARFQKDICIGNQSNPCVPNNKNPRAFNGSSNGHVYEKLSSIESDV

## Cc1c(C#N)ccnc1O[C@@H]1CC[C@@H](C)N(C(=O)c2cc(F)ccc2-c2nccs2)C1 [compound 1, 2-(((3R,6R)-1-(5-Fluoro-2-(thiazol-2-yl)benzoyl)-6-methylpiperidin-3-yl)oxy)-3-methylisonicotinonitrile]
NR2B receptors
  Ki: 9.48 µM
Experimental log D
  logD: 3.43
OX2R [1]
  Ki: 0.0001 µM
[2]
  off-target binding toward 59 major CNS targets: No off-target activity was observed; also recorded: No significant off-target
sigma-2
  Ki: 2.68 µM
OX1R
  Ki: 0.089 µM
OX2R [3]
  selectivity over OX1R: exceeded 600 fold
  selectivity (OX2R/OX1R): 890

## orexin B: endogenous neuropeptide ligand of the orexin receptors, selective for OX2R
OX2R [4]
  selectivity for OX2R: > 10 fold

## Cc1c(C#N)ccnc1O[C@@H]1CC[C@@H](C)N(C(=O)c2cc([18F])ccc2-c2nccs2)C1 [[^18F]1]
OX2R [5]
  tracer uptake reduction under blocking: 40–43%
  peak SUV in brain: 2.1
  increase in SUV0–60 min with elacridar: > 100%
[6]
  radiometabolites in liver microsomes (stability): No appreciable radiometabolites were detected
OX2R [7]
  autoradiography signal reduction under blocking: 54–84%
OX2R [1]
  Ki: 0.0001 µM
[8]
  intact parent tracer in brain: ca. 90%
[9]
  radiometabolites in serum (stability): No appreciable radiometabolites were detected
[10]
  radiometabolites in saline (stability): No appreciable radiometabolites were detected
OX2R [3]
  selectivity over OX1R: > 600 fold

## CC1CCC(Oc2cc(C#N)ccn2)CN1C(=O)c1cc([18F])ccc1-c1ncccn1 (stereo not drawn) [[^18F]2]
OX2R [5]
  tracer uptake reduction under blocking: 23–46%
  peak SUV in brain: 1.8
  increase in SUV0–60 min with elacridar: > 100%
[6]
  radiometabolites in liver microsomes (stability): No appreciable radiometabolites were detected
OX2R [7]
  autoradiography signal reduction under blocking: 51–71%
OX2R [1]
  Ki: 0.001 µM
[8]
  intact parent tracer in brain: ca. 90%
[9]
  radiometabolites in serum (stability): No appreciable radiometabolites were detected
[10]
  radiometabolites in saline (stability): No appreciable radiometabolites were detected
OX2R [3]
  selectivity over OX1R: > 600 fold

## C[C@@H]1CC[C@@H](Oc2cc(C#N)ccn2)CN1C(=O)c1cc(F)ccc1-c1ncccn1 [compound 2, 2-(((3R,6R)-1-(5-Fluoro-2-(pyrimidin-2-yl)benzoyl)-6-methylpiperidin-3-yl)oxy)isonicotinonitrile]
Experimental log D
  logD: 2.54
OX2R [1]
  Ki: 0.001 µM
[2]
  off-target binding toward 59 major CNS targets: No off-target activity was observed; also recorded: No significant off-target
sigma-2
  Ki: 4.73 µM
OX1R
  Ki: 0.658 µM
OX2R [3]
  selectivity over OX1R: exceeded 600 fold
  selectivity (OX2R/OX1R): 658
